The results in this text go back to PubChem BioAssay (NCI).

In brackets after ≈: the same amount, converted by molar mass.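 Cells were grown in 96-well plates and exposed to each compound for 48 hours at five concentrations; endpoints were interpolated linearly between bracketing concentrations, or set to the highest concentration if not reached. Here, GI50 denotes the concentration required for 50% inhibition of growth. TGI denotes the concentration required for complete inhibition of growth.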

Test systems include 786-0 renal; SR leukemia; HCT-116 colon; OVCAR-4 ovarian; NCI/ADR-RES ovarian; HCC-2998 colon; MDA-N; HS 578T breast; UACC-62 melanoma; DLD-1 colon; KM20L2 colon; HOP-18 NSCLC.
Holding throughout (test): NCI tumour cell line growth inhibition, 48 h

For the molecule `C[N+]1(CCC(=O)c2ccccc2)CCC2CCC(C2)C1` (centres undefined), the TGI in the test with 786-0 renal, with SR leukemia, in the test on HCT-116 colon, in the test with OVCAR-4 ovarian, in the test on NCI/ADR-RES ovarian and with HCC-2998 colon was more than 100 µM each time. The TGI in the test on MDA-N, in the test with HS 578T breast and in the test with UACC-62 melanoma was more than 100 µM each time.

Consider `COC(=O)c1cc(NC(=O)c2cc(NC(=O)Cc3c[nH]c4ccccc34)cn2C)cn1C`, for which the TGI in the test on 786-0 renal was more than 100 µM; in the test on HCT-116 colon, 84.1 µM; in the test with OVCAR-4 ovarian, more than 100 µM; with NCI/ADR-RES ovarian, more than 100 µM; in the test on MDA-N it was more than 100 µM; with UACC-62 melanoma it was 60.8 µM.

As to `CCOCC(=O)N(C)c1cccc2c3c(n(C)c12)CCCCC3`, the TGI with HCT-116 colon, in the test with OVCAR-4 ovarian, in the test with NCI/ADR-RES ovarian, with DLD-1 colon, in the test with KM20L2 colon and in the test on HCC-2998 colon was more than 100 µM each time. Besides, the TGI was more than 20.9 µM in the test with HOP-18 NSCLC and more than 100 µM in the test with UACC-62 melanoma.

Consider `CC1C(=O)c2cc3c(cc2CCN(C)Cc2c1ccc1c2OCO1)OCO3` (centres undefined), for which the GI50 in the test with SR leukemia is 13.3 µg/mL; in the test with HCT-116 colon it was 23.4 µg/mL (≈ 63.8 µM); in the test on OVCAR-4 ovarian it was 44.4 µg/mL; in the test on NCI/ADR-RES ovarian, 58.3 µg/mL; with HCC-2998 colon, 14.1 µg/mL; with MDA-N, more than 75 µg/mL. For the same molecule, the GI50 is more than 75 µg/mL with HS 578T breast and 45.2 µg/mL with UACC-62 melanoma. For the same molecule, the TGI in the test with SR leukemia was 40.9 µg/mL; in the test on HCT-116 colon, more than 75 µg/mL; with OVCAR-4 ovarian, more than 75 µg/mL; with NCI/ADR-RES ovarian, more than 75 µg/mL; in the test on HCC-2998 colon it was 33.5 µg/mL; with MDA-N, more than 75 µg/mL. In addition, the TGI with HS 578T breast and in the test with UACC-62 melanoma was more than 75 µg/mL each time.

As for `Cc1cc(C)c2c(=O)n(CC(O)CN3CCN(CCOCCO)CC3)sc2n1` (centres undefined), the TGI with 786-0 renal is 30.6 µM; in the test on SR leukemia, more than 100 µM; in the test with HCT-116 colon it was 30.8 µM; in the test on OVCAR-4 ovarian it was 34.5 µM; in the test with NCI/ADR-RES ovarian it was more than 100 µM; in the test with MDA-N, 29.2 µM. Also, the TGI in the test on HS 578T breast amounted to 77.8 µM; in the test on UACC-62 melanoma, 32.7 µM.

Take `O=S(=O)(O)c1ccc2c(N=Nc3ccc(N=Nc4ccccc4)cc3)c(O)c(S(=O)(=O)O)cc2c1`: the TGI in the test with 786-0 renal, in the test with SR leukemia, with HCT-116 colon, with OVCAR-4 ovarian, in the test on NCI/ADR-RES ovarian and in the test on HCC-2998 colon was more than 100 µM each time. The TGI in the test on MDA-N, in the test with HS 578T breast and in the test with UACC-62 melanoma was more than 100 µM in each case.

Regarding `CC1=C[C@@H](C)C[C@]2(C)CC[C@H](O2)[C@]23CC[C@](CO)(C[C@H](O2)[C@@H]2O[C@@](C)(CC2=O)[C@@H](O)[C@H]2CC[C@@]4(CCC[C@@H](O4)[C@H](C)C(=O)O[C@H]4C[C@H]([C@]5(O)OCC[C@H](C)[C@@H]5O)O[C@H]4C=C1)O2)O3`, the TGI with SR leukemia, with HCT-116 colon, in the test with OVCAR-4 ovarian, with NCI/ADR-RES ovarian, with HCC-2998 colon and with MDA-N was more than 10 µM in each case. Further, the TGI with HS 578T breast was 0.00776 µM; in the test with UACC-62 melanoma, more than 9.63 µM.

Consider `N#Cc1ccccc1C#C/C=C\C#Cc1ccccc1N`, for which the GI50 was 0.745 µM in the test with SR leukemia; 16.1 µM in the test with OVCAR-4 ovarian; 2.44 µM in the test on NCI/ADR-RES ovarian; 0.808 µM in the test with HCC-2998 colon; 5.29 µM with HS 578T breast; 3.03 µM in the test on UACC-62 melanoma. For the same molecule, the TGI in the test on SR leukemia was 2.52 µM; in the test on OVCAR-4 ovarian it was more than 100 µM; in the test on NCI/ADR-RES ovarian it was 29.2 µM; with HCC-2998 colon, 4.11 µM; in the test with HS 578T breast, more than 25.5 µM; in the test with UACC-62 melanoma, more than 33.6 µM.

For `COc1ccc(-n2c3c(c4cc(O)ccc42)Cc2ccccc2C3=O)cc1`, the TGI in the test on 786-0 renal is more than 100 µM; in the test with SR leukemia, more than 100 µM; in the test with HCT-116 colon it was more than 100 µM; with OVCAR-4 ovarian, 82.1 µM; with NCI/ADR-RES ovarian, more than 100 µM; in the test with MDA-N, more than 100 µM. Further, the TGI in the test with HS 578T breast and in the test on UACC-62 melanoma was more than 100 µM each time.

Regarding `Cc1ccc(OCC2=NC3S/C(=C/c4ccc([N+](=O)[O-])o4)C(=O)N3N2)cc1` (centres undefined), the TGI in the test on 786-0 renal is 23.7 µM; in the test with SR leukemia, 11.4 µM; in the test with HCT-116 colon, 15.9 µM; in the test with OVCAR-4 ovarian, 7.86 µM; in the test with NCI/ADR-RES ovarian, 33.2 µM; with MDA-N it was 20.7 µM. The molecule further registered a TGI with HS 578T breast of 89 µM.

With `Cc1ccc2nc(-c3ccc(NC(=O)c4ccc(N)cc4)c(S(=O)(=O)O)c3)sc2c1`, the TGI with 786-0 renal, with HCT-116 colon, in the test on OVCAR-4 ovarian, with NCI/ADR-RES ovarian, in the test with HCC-2998 colon and with MDA-N was more than 100 µM throughout. Further, the TGI in the test on HS 578T breast and with UACC-62 melanoma was more than 100 µM each time.

`Nc1cc(S(=O)(=O)O)cc2ccc(S(=O)(=O)O)cc12`: the TGI in the test with 786-0 renal, in the test on SR leukemia, in the test with HCT-116 colon, with OVCAR-4 ovarian, in the test on NCI/ADR-RES ovarian and in the test on HCC-2998 colon was more than 100 µM in each case. Besides, the TGI in the test on MDA-N, in the test with HS 578T breast and in the test on UACC-62 melanoma was more than 100 µM in each case.

As for `CC(=O)Nc1ccc(C(=O)NN2C(=O)C(Cl)C2c2cccc([N+](=O)[O-])c2)cc1` (centres undefined), the TGI in the test with SR leukemia, in the test with HCT-116 colon, in the test on DLD-1 colon, in the test on HCC-2998 colon and with UACC-62 melanoma was more than 100 µM each time.

`CCN1CCN(c2nc3ccccc3nc2C(=O)c2ccc(OC)c(OC)c2)CC1`: the TGI in the test on 786-0 renal worked out at 25.7 µM; in the test with SR leukemia, 24.4 µM; in the test with HCT-116 colon it was 19.7 µM; with OVCAR-4 ovarian, 25.7 µM; with NCI/ADR-RES ovarian, 3.39 µM; with HCC-2998 colon it was 9.71 µM. Also, the TGI is 97.7 µM with MDA-N and more than 100 µM with UACC-62 melanoma.

On to `N=c1ccc2nc(N)nn(O)c-2c1`, for which the TGI with 786-0 renal, with SR leukemia, in the test with HCT-116 colon, in the test with OVCAR-4 ovarian, in the test with NCI/ADR-RES ovarian and with MDA-N was more than 100 µM throughout. Also, the TGI in the test with HS 578T breast and in the test on UACC-62 melanoma was more than 100 µM in each case.
